In ChEMBL document CHEMBL2073756, “Contribution of P-glycoprotein to bunitrolol efflux across blood-brain barrier” (Biopharm Drug Dispos, 1999):

Legend:
[1] = biological target: ATP-dependent translocase ABCB1 (Homo sapiens, UniProt P08183); assay: TP_TRANSPORTER: intracellular accumulation in KB cell and KB-VJ300 cells; assay type: functional, cell-based
[2] = biological target: ATP-dependent translocase ABCB1 (Mus musculus, UniProt P21447); assay: TP_TRANSPORTER: increase in brain concentration in mdr1a(-/-) mouse; assay type: functional, organism-based; conditions: in vivo
Sequence of ATP-dependent translocase ABCB1 (Mus musculus, UniProt P21447) (P21447 whole entry): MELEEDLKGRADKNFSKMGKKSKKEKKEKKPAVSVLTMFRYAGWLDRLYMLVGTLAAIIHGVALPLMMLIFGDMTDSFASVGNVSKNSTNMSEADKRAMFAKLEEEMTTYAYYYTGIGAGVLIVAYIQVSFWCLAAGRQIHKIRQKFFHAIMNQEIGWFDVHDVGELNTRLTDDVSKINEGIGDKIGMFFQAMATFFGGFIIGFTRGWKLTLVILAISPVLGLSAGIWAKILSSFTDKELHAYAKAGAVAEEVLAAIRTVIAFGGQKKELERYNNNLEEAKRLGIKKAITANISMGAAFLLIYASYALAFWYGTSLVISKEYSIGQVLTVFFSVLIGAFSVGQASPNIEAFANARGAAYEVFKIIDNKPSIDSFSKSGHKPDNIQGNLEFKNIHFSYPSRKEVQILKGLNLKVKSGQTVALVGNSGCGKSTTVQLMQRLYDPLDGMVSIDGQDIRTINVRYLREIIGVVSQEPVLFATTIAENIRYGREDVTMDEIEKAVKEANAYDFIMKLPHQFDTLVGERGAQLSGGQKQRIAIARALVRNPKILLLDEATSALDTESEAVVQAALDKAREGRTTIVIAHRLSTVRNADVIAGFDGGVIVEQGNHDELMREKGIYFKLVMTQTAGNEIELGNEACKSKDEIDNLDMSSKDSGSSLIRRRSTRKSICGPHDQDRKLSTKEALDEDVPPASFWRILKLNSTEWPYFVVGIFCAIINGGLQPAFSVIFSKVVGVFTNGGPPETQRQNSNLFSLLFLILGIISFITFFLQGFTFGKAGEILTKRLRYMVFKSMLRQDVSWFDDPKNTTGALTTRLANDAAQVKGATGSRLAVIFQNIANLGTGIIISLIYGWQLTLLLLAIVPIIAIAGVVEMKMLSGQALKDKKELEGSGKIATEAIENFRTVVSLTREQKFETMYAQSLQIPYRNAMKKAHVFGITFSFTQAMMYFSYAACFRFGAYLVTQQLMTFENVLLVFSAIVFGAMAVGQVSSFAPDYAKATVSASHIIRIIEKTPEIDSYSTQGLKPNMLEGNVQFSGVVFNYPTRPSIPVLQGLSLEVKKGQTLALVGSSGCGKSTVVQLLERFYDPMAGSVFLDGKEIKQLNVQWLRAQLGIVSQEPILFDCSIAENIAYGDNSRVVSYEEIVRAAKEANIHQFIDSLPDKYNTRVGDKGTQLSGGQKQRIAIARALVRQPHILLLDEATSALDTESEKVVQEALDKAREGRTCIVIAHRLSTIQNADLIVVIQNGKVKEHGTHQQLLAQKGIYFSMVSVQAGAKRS

Sequence of ATP-dependent translocase ABCB1 (Homo sapiens, UniProt P08183) (P08183 whole entry): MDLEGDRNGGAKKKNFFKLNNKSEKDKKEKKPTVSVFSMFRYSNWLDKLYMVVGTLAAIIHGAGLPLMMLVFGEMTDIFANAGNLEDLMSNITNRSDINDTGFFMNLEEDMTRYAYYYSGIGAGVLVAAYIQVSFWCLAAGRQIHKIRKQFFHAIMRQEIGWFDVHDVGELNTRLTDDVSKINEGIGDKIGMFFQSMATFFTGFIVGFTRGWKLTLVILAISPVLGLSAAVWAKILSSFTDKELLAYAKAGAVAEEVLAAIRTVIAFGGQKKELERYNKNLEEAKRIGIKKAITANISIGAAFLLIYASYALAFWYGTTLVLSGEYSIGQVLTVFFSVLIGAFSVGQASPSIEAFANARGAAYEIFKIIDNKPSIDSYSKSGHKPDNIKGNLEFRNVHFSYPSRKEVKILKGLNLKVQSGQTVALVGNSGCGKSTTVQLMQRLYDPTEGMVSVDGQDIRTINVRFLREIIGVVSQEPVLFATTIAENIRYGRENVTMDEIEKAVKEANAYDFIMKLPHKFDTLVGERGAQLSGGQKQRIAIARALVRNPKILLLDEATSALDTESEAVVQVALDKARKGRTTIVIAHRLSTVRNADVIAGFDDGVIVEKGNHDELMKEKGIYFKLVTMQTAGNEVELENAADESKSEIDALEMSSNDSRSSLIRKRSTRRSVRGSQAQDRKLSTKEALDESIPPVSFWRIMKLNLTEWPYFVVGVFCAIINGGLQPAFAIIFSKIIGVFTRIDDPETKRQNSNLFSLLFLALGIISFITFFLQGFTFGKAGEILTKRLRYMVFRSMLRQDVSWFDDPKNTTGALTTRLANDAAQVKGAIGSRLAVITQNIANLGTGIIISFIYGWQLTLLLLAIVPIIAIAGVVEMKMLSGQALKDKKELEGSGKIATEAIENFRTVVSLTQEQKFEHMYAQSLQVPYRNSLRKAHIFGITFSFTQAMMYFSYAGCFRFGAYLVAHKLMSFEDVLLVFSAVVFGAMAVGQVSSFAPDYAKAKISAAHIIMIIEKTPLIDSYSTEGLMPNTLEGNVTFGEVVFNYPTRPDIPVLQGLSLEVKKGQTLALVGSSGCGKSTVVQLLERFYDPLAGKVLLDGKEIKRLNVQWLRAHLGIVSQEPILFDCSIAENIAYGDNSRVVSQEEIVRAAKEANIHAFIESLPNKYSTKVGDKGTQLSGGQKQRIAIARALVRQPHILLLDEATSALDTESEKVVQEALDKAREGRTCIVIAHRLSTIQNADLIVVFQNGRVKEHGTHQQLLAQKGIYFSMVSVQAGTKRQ

## CC(C)(C)NCC(O)COc1ccccc1C#N (configuration not stated) [BUNITROLOL]
[1]
  Activity: substrate [+]
[2]
  Activity: substrate [+]
